Reference: patent US7691851B2, “Metalloprotease inhibitors containing a heterocyclic moiety” (Alantos Pharmaceuticals Holding, Inc., priority 2007, dated 2010)

Molecular target: T1, MMP-13 (Homo sapiens, UniProt P45452)
T1 construct: 10 μL of a 50 nM stock solution of catalytic domain of MMP-13 enzyme; purchased Invitek (Berlin) 30100812
Assay: Assay for determining MMP-13 inhibition (fluorescent substrate)
Assay type: biochemical
Conditions: catalytic domain of MMP-13
Description: The inhibiting activity towards different metalloproteases of the heterocyclic metalloprotease inhibiting compounds of the present invention may be measured using any suitable assay known in the art. A standard in vitro assay for measuring the metalloprotease inhibiting activity is described in Examples 1700 to 1704.
The typical assay for MMP-13 activity is carried out in assay buffer comprised of 50 mM Tris, pH 7.5, 150 mM NaCl, 5 mM CaCl2 and 0.05% Brij-35. Different concentrations of tested compounds are prepared in assay buffer in 50 μL aliquots. 10 μL of a 50 nM stock solution of catalytic domain of MMP-13 enzyme (produced by Alantos or commercially available from Invitek (Berlin), Cat.# 30100812) is added to the compound solution. The mixture of enzyme and compound in assay buffer is thoroughly mixed and incubated for 10 min at room temperature. Upon the completion of incubation, the assay is started by addition of 40 μL of a 12.5 μM stock solution of MMP-13 fluorescent substrate (Calbiochem, Cat. No. 444235). The time-dependent increase in fluorescence is measured at the 320 nm excitation and 390 nm emission by automatic plate multireader. The IC50 values are calculated from the initial reaction rates.

[1] = compounds stated as lower than 100 nM

SMILES	IC50 [1]	IC50 (range class, units printed within the value (nM to μM))
Cc1c(C(=O)O)ccc2c1CC[C@@H]2NC(=O)c1cc(C(=O)NCc2ccc3c(c2)NC(=S)CO3)nc2ccnn12 [1/1]	< 100 nM	–
Cc1c(C(=O)O)ccc2c1CC[C@@H]2NC(=O)c1cc(C(=O)NCc2ccc3c(c2)-n2c(noc2=O)CO3)nc2ccnn12 [Example 1/2]	–	100 to 20000 nM
Cc1c(C(=O)O)ccc2c1CC[C@@H]2NC(=O)c1cc(C(=O)NCc2ccc3c(c2)-n2cnnc2CO3)nc2ccnn12 [Example 1]	< 100 nM	–
